Measurements published in US20220104493A1, “HERBICIDAL COMPOUNDS” (SYNGENTA CROP PROTECTION AG, priority 2019, published 2022).

Tests used:
Format in all cases: in vivo
[1] = test system: Ipomoea hederacea (IPOHE); test: Post-emergence efficacy, Method A; conditions: 500 g/Ha, 100=total damage to plant, 0=no damage, evaluated after 7 and 14 days, read-out: Control of weed species after post-emergence application, IPOHE
[2] = test system: Euphorbia heterophylla (EPHHL); test: Post-emergence efficacy, Method A; conditions: 500 g/Ha, 100=total damage to plant, 0=no damage, evaluated after 7 and 14 days, read-out: Control of weed species after post-emergence application, EPHHL
[3] = test system: Chenopodium album (CHEAL); test: Post-emergence efficacy, Method A; conditions: 500 g/Ha, 100=total damage to plant, 0=no damage, evaluated after 7 and 14 days, read-out: Control of weed species after post-emergence application, CHEAL
[4] = test system: Amaranthus palmeri (AMAPA); test: Post-emergence efficacy, Method A; conditions: 500 g/Ha, 100=total damage to plant, 0=no damage, evaluated after 7 and 14 days, read-out: Control of weed species after post-emergence application, AMAPA
[5] = test system: Lolium perenne (LOLPE); test: Post-emergence efficacy, Method A; conditions: 500 g/Ha, 100=total damage to plant, 0=no damage, evaluated after 7 and 14 days, read-out: Control of weed species after post-emergence application, LOLPE
[6] = test system: Digitaria sanguinalis (DIGSA); test: Post-emergence efficacy, Method A; conditions: 500 g/Ha, 100=total damage to plant, 0=no damage, evaluated after 7 and 14 days, read-out: Control of weed species after post-emergence application, DIGSA
[7] = test system: Eleusine indica (ELEIN); test: Post-emergence efficacy, Method A; conditions: 500 g/Ha, 100=total damage to plant, 0=no damage, evaluated after 7 and 14 days, read-out: Control of weed species after post-emergence application, ELEIN
[8] = test system: Echinochloa crus-galli (ECHCG); test: Post-emergence efficacy, Method A; conditions: 500 g/Ha, 100=total damage to plant, 0=no damage, evaluated after 7 and 14 days, read-out: Control of weed species after post-emergence application, ECHCG
[9] = test system: Setaria faberi (SETFA); test: Post-emergence efficacy, Method A; conditions: 500 g/Ha, 100=total damage to plant, 0=no damage, evaluated after 7 and 14 days, read-out: Control of weed species after post-emergence application, SETFA
[10] = test system: Brassica napus (BRSNN); test: Post-emergence efficacy, Method B
Experimental: (§1) Seeds of a variety of test species were sown in standard loam based soil in pots. Plants were cultivated from between 21 and 28 days (post-emergence) under controlled conditions in a glasshouse (at 24/16° C., day/night; 14 hours light; 65% humidity) for warm climate species and (at 20/16° C. day/night; 15 hours light; 65% humidity) for cool climate species.
(§2) The plants were sprayed with an aqueous spray solution derived from dissolving the technical active ingredient formula in a small amount of acetone and a special solvent and emulsifier mixture referred to as IF50 (11.12% Emulsogen EL360 TM+44.44% N-methylpyrrolidone+44.44% Dowanol DPM glycol ether), to create a 50 g/l solution which was then diluted to required concentration using 0.5% or 1% Empicol ESC70 (Sodium lauryl ether sulphate)+1% ammonium sulphate as diluent.
(§3) The delivery of the aqueous spray solution was via a laboratory track sprayer which delivered the aqueous spray composition at a rate of 200 litres per hectare, using a flat fan nozzle (Teejet 11002VS) and an application volume of 200 litre/ha (at 2 bar).
(§4) The test plants were then grown in a glasshouse under controlled conditions (at 24/16° C., day/night; 14 hours light; 65% humidity) for warm climate species and (at 20/16° C. day/night; 15 hours light; 65% humidity) for cool climate species and watered twice daily. After 7 and 14 days the test was evaluated (100=total damage to plant; 0=no damage to plant).
(§5) Brassica napus (BRSNN), Solanum turberosum (SOLTU), Glycine Max (GLXMA), and Helianthus annus (HELAN)

[11] = test system: Glycine Max (GLXMA); test: Post-emergence efficacy, Method B
Experimental: as §1, §2, §3, §4, §5

[12] = test system: Helianthus annus (HELAN); test: Post-emergence efficacy, Method B; conditions: second set of rows of Table C (evaluated after 7 and 14 days, day not printed)
Experimental: as §1, §2, §3, §4, §5

[13] = test system: Solanum turberosum (SOLTU); test: Post-emergence efficacy, Method B
Experimental: as §1, §2, §3, §4, §5

[14] = 50 g/Ha, first set of rows of Table C (evaluated after 7 and 14 days, day not printed)
[15] = 50 g/Ha, second set of rows of Table C (evaluated after 7 and 14 days, day not printed)
[16] = 150 g/Ha, first set of rows of Table C (evaluated after 7 and 14 days, day not printed)
[17] = 150 g/Ha, second set of rows of Table C (evaluated after 7 and 14 days, day not printed)
[18] = 600 g/Ha, first set of rows of Table C (evaluated after 7 and 14 days, day not printed)
[19] = 600 g/Ha, second set of rows of Table C (evaluated after 7 and 14 days, day not printed)

O=S(=O)([O-])C[n+]1ccc(-c2ncns2)cc1 [Compound A4, [4-(1,2,4-thiadiazol-5-yl)pyridin-1-ium-1-yl]methanesulfonate]
pest or weed control at 500 g/ha [1]: 100%
pest or weed control at 500 g/ha [2]: 100%
pest or weed control at 500 g/ha [3]: 100%
pest or weed control at 500 g/ha [4]: 100%
pest or weed control at 500 g/ha [5]: 80%
pest or weed control at 500 g/ha [6]: 70%
pest or weed control at 500 g/ha [7]: 80%
pest or weed control at 500 g/ha [8]: 70%
pest or weed control at 500 g/ha [9]: 80%
Control after post-emergence application, BRSNN (100=total damage to plant; 0=no damage to plant) [10, 14]: 23
Control after post-emergence application, BRSNN (100=total damage to plant; 0=no damage to plant) [10, 15]: 43
Control after post-emergence application, BRSNN (100=total damage to plant; 0=no damage to plant) [10, 16]: 32
Control after post-emergence application, BRSNN (100=total damage to plant; 0=no damage to plant) [10, 17]: 57
Control after post-emergence application, BRSNN (100=total damage to plant; 0=no damage to plant) [10, 18]: 43
Control after post-emergence application, BRSNN (100=total damage to plant; 0=no damage to plant) [10, 19]: 80
Control after post-emergence application, GLXMA (100=total damage to plant; 0=no damage to plant) [11, 14]: 45
Control after post-emergence application, GLXMA (100=total damage to plant; 0=no damage to plant) [11, 15]: 52
Control after post-emergence application, GLXMA (100=total damage to plant; 0=no damage to plant) [11, 16]: 83
Control after post-emergence application, GLXMA (100=total damage to plant; 0=no damage to plant) [11, 17]: 62
Control after post-emergence application, GLXMA (100=total damage to plant; 0=no damage to plant) [11, 18]: 93
Control after post-emergence application, GLXMA (100=total damage to plant; 0=no damage to plant) [11, 19]: 85
Control after post-emergence application, HELAN (100=total damage to plant; 0=no damage to plant) ([12]; 50 g/Ha): 97
Control after post-emergence application, HELAN (100=total damage to plant; 0=no damage to plant) ([12]; 150 g/Ha): 100
Control after post-emergence application, HELAN (100=total damage to plant; 0=no damage to plant) ([12]; 600 g/Ha): 100
Control after post-emergence application, SOLTU (100=total damage to plant; 0=no damage to plant) [13, 14]: 15
Control after post-emergence application, SOLTU (100=total damage to plant; 0=no damage to plant) [13, 15]: 50
Control after post-emergence application, SOLTU (100=total damage to plant; 0=no damage to plant) [13, 16]: 30
Control after post-emergence application, SOLTU (100=total damage to plant; 0=no damage to plant) [13, 17]: 60
Control after post-emergence application, SOLTU (100=total damage to plant; 0=no damage to plant) [13, 18]: 82
Control after post-emergence application, SOLTU (100=total damage to plant; 0=no damage to plant) [13, 19]: 67
